{
  "source": "patent US20080166805A1",
  "about": "“Culturing human cells and tissues in an N-glycolylneuraminic acid-free environment” (The Regents of the University of California, priority 2005, published 2008)",
  "format_in_all_cases": "cell-based",
  "key": {"[1]": {"test_system": "Caco-2 cells", "assay": "Neu5Gc and ManNGc feeding experiment, Caco-2 cells (fractionation, DMB-HPLC)", "settings": "Caco-2 cells fed 3 mM for 3 days, grown in human serum", "protocol": "Cell Culture—Caco-2 cells were propagated in alpha-MEM containing GLUTAMAX™ (Invitrogen, San Diego, Calif.) and a mixture of ribonucleosides and deoxyribonucleosides (Gibco/Invitrogen, San Diego, Calif.) supplemented with 20% FCS. All the fibroblast cell lines and CHO-K1 cells were cultured in the same media supplemented respectively with 15% non-heat inactivated FCS or 10% heat inactivated FCS. Chimpanzee Fred and human […] EBV-transformed lymphoblasts were cultured in RPMI-1640 (Gibco/Invitrogen, San Diego, Calif.) supplemented with 10% heat inactivated FCS or 15% human serum. All of the cultures were maintained at 37° C., 5% CO2 atmosphere. In order to deplete any remaining Neu5Gc from FCS, the cells were split and cultured prior to Neu5Gc feeding experiments for at least 4 days in alpha-MEM supplemented with an adequate percentage of heat-inactivated premium human serum instead of FCS. The cells were then maintained under the same conditions during the whole feeding experiment. The human serum was heat inactivated at 56° C. for 30 min. before use. […]\nFractionation of the Labeled Cells—Washed cell pellets were sonicated into 500 μL of 20 mM sodium phosphate buffer or 20 mM Tris-HCl, pH 7.5, using 4×15 second pulses of a sonicator cell disrupter, model Some Dismembrator (Fisher Scientific, Hampton, N.J.) at a probe setting of 3. […] The pellet contained <5% of the incorporated sialic acid as determined using a radioactive tracer (data not shown.) The supernatant was therefore considered as the “total homogenate” fraction. A portion (20%) of the “total homogenate” fraction was taken for protein quantification and Sia analysis by DMB derivatization and HPLC analysis (as discussed below.) The remainder was centrifuged at 100,000×g for 1 h. […] All the Sias in these fractions were released with mild acid hydrolysis if necessary and then analyzed by HPLC after DMB derivatization. […]"}, "[2]": {"test_system": "normal human skin fibroblasts (WT)", "assay": "Neu5Gc/ManNGc feeding experiment, normal human skin fibroblasts", "protocol": "(§1) Cell Culture—Caco-2 cells were propagated in alpha-MEM containing GLUTAMAX™ (Invitrogen, San Diego, Calif.) and a mixture of ribonucleosides and deoxyribonucleosides (Gibco/Invitrogen, San Diego, Calif.) supplemented with 20% FCS. All the fibroblast cell lines and CHO-K1 cells were cultured in the same media supplemented respectively with 15% non-heat inactivated FCS or 10% heat inactivated FCS. Chimpanzee Fred and human […] EBV-transformed lymphoblasts were cultured in RPMI-1640 (Gibco/Invitrogen, San Diego, Calif.) supplemented with 10% heat inactivated FCS or 15% human serum. All of the cultures were maintained at 37° C., 5% CO2 atmosphere. In order to deplete any remaining Neu5Gc from FCS, the cells were split and cultured prior to Neu5Gc feeding experiments for at least 4 days in alpha-MEM supplemented with an adequate percentage of heat-inactivated premium human serum instead of FCS. The cells were then maintained under the same conditions during the whole feeding experiment. The human serum was heat inactivated at 56° C. for 30 min. before use.\n(§2) Neu5Gc and ManNGc Feeding Experiment—Neu5Ac, Neu5Gc or ManNGc were dried, dissolved in the appropriate media supplemented with heat-inactivated human serum, sterilized using a Spin-X® (Corning Inc., Corning, N.Y.) and then added to the cells. The pH of the media containing Sia was adjusted to neutrality using sterilized 1M NaOH before starting the feeding experiment. Cells were cultured in the presence of up to 3 mM free Sia or ManNGc for 1 or 3 days at 37° C. At the end of the feeding, cells were washed with cold PBS, harvested either by scraping or with 2 mM EDTA for fibroblasts, and washed again with cold PBS prior to fractionation.\nFractionation of the Labeled Cells—Washed cell pellets were sonicated into 500 μL of 20 mM sodium phosphate buffer or 20 mM Tris-HCl, pH 7.5, using 4×15 second pulses of a sonicator cell disrupter, model Some Dismembrator (Fisher Scientific, Hampton, N.J.) at a probe setting of 3. The sonicate was centrifuged at 75×g for 15 min., and the pellet obtained consisted primarily of nuclei and unbroken cells. The pellet contained <5% of the incorporated sialic acid as determined using a radioactive tracer (data not shown.) The supernatant was therefore considered as the “total homogenate” fraction. A portion (20%) of the “total homogenate” fraction was taken for protein quantification and Sia analysis by DMB derivatization and HPLC analysis (as discussed below.) The remainder was centrifuged at 100,000×g for 1 h. The resulting pellet, called the “membrane” fraction, was then resuspended by sonication (15 sec.) in 200 μl of sodium acetate buffer, pH 5.5. The 100,000×g supernatant, called the “soluble” fraction was adjusted to 90% ethanol using absolute ice-cold ethanol, and placed overnight at −20° C. The flocculant precipitate, which represents the “soluble protein” fraction, was washed 3 times with 90% ice-cold ethanol and then resuspended in 200 μl of water. […] All the Sias in these fractions were released with mild acid hydrolysis if necessary and then analyzed by HPLC after DMB derivatization. Protein quantification was performed on the total homogenate, membrane and soluble protein fractions by using the BCA protein assay kit from Pierce (Rockford, Ill.) In some experiments, the resulting data obtained for the Sia bound to the membrane fraction and to the soluble proteins were pooled and presented here as a High Molecular Weight (HMW) fraction. […]"}, "[3]": {"test_system": "human neuroblastoma cells", "assay": "Neu5Gc feeding experiment, human neuroblastoma cells", "settings": "neuroblastoma cells fed 3 mM for 3 days", "protocol": "as §2\nFractionation of the Labeled Cells—Washed cell pellets were sonicated into 500 μL of 20 mM sodium phosphate buffer or 20 mM Tris-HCl, pH 7.5, using 4×15 second pulses of a sonicator cell disrupter, model Some Dismembrator (Fisher Scientific, Hampton, N.J.) at a probe setting of 3. […] The pellet contained <5% of the incorporated sialic acid as determined using a radioactive tracer (data not shown.) The supernatant was therefore considered as the “total homogenate” fraction. A portion (20%) of the “total homogenate” fraction was taken for protein quantification and Sia analysis by DMB derivatization and HPLC analysis (as discussed below.) The remainder was centrifuged at 100,000×g for 1 h. […]"}, "[4]": {"test_system": "human LB EBV-transformed lymphoblasts", "assay": "Neu5Gc/Neu5Ac feeding experiment, human EBV-transformed lymphoblasts", "settings": "human lymphoblasts fed 3 mM for 3 days", "protocol": "as §1\nas §2, with “At the end of the feeding, cells were washed with cold PBS, harvested either by scraping or with 2 mM EDTA for fibroblasts, and washed again with cold PBS prior to fractionation.” left out\nFractionation of the Labeled Cells—Washed cell pellets were sonicated into 500 μL of 20 mM sodium phosphate buffer or 20 mM Tris-HCl, pH 7.5, using 4×15 second pulses of a sonicator cell disrupter, model Some Dismembrator (Fisher Scientific, Hampton, N.J.) at a probe setting of 3. […] The pellet contained <5% of the incorporated sialic acid as determined using a radioactive tracer (data not shown.) The supernatant was therefore considered as the “total homogenate” fraction. A portion (20%) of the “total homogenate” fraction was taken for protein quantification and Sia analysis by DMB derivatization and HPLC analysis (as discussed below.) The remainder was centrifuged at 100,000×g for 1 h. […] All the Sias in these fractions were released with mild acid hydrolysis if necessary and then analyzed by HPLC after DMB derivatization. Protein quantification was performed on the total homogenate, membrane and soluble protein fractions by using the BCA protein assay kit from Pierce (Rockford, Ill.) In some experiments, the resulting data obtained for the Sia bound to the membrane fraction and to the soluble proteins were pooled and presented here as a High Molecular Weight (HMW) fraction. […]"}, "[5]": {"settings": "normal fibroblasts fed 3 mM for 3 days"}},
  "data": [
    {"smiles": "O=C(CO)N[C@H]1[C@H]([C@H](O)[C@H](O)CO)OC(O)(C(=O)O)C[C@@H]1O", "note": "(stereo partly drawn) [Neu5Gc, N-glycolylneuraminic acid]", "values": [
      {"measurement": "Neu5Gc as percent of total Sia, cytosolic low molecular weight (LMW) fraction", "setting": "[1]", "value": 70, "unit": "%"},
      {"measurement": "Neu5Gc as percent of total Sia, high molecular weight fraction (HMW)", "setting": "[1]", "value": 46, "unit": "%"},
      {"measurement": "Neu5Gc as percent of total Sia, total homogenate (TH)", "setting": "[1]", "value": 58, "unit": "%"},
      {"measurement": "Neu5Gc as percent of total Sia, HMW fraction", "setting": "[2]; [5]", "value": 39, "unit": "%"},
      {"measurement": "Neu5Gc as percent of total Sia, TH fraction", "setting": "[2]; [5]", "value": 28, "unit": "%"},
      {"measurement": "Neu5Gc as percent of total Sia, cytosolic LMW fraction", "setting": "[2]; [5]", "value": 41, "unit": "%"},
      {"measurement": "percent of Neu5Gc incorporation into membrane-bound glycoconjugates", "setting": "[2]; normal wild-type (WT) fibroblasts fed 3 mM for 3 days", "value": 37, "unit": "%"},
      {"measurement": "Neu5Gc incorporation efficiency", "setting": "[3]", "value": "efficiency comparable to the Caco-2 cells"},
      {"measurement": "Neu5Gc as percent of total Sia, HMW fraction", "setting": "[4]", "value": 51, "unit": "%"}
    ]}
  ]
}
